Each structure is given as a SMILES string.

This data set in a line: Hygroscopicity, DVS experiment (moisture induced weight change). The class given is physicochemical. The method, then:
All DVS measurements were carried out at 2.5% relative humidity change per hour.

For `CN1CCN(c2ccc3nc(-c4c(N)c5c(F)cccc5[nH]c4=O)[nH]c3c2)CC1.O=C(O)CC(O)C(=O)O` [Malate trial 1], the “Moisture induced % weight change” value runs as follows: (55% RH, listed as Malate trial 3) 0.08%; (95% RH, listed as Malate trial 3) 0.30%.

Consider `CC(O)C(=O)O.CN1CCN(c2ccc3nc(-c4c(N)c5c(F)cccc5[nH]c4=O)[nH]c3c2)CC1` [Lactate trial 1, Lactic Acid salt of 4-Amino-5-fluoro-3-[6-(4-methyl-piperazin-1-yl)-1H-benzimidazol-2-yl]-1H-quinolin-2-one], for which the “Moisture induced % weight change” value (55% RH, listed as Lactate trial 3) worked out at 0.08%. Moreover, the “Water uptake in DVS experiment” value (RH above 90%, not completely reversible) is given as “significant water uptake”. Moreover, the “Hygroscopicity in DVS experiment” value (below about 80% RH) is recorded as “not hygroscopic”.

(Values after US20120276200A1, “FORMULATIONS OF QUINOLINONES” (priority 2005, published 2012).)
